Results on 2 compounds are retold here after ChEMBL document CHEMBL1151251, “Monanchorin, a bicyclic alkaloid from the sponge Monanchora ungiculata” (J Nat Prod, 2004).

This assay can be described thus: Cytotoxicity against mouse IC2 cells. The assay is classed as functional, cell-based.

SMILES strings stand for the structures. ≈ marks a conversion by molar mass, not a printed value.

By IC50 is commonly meant the midpoint of a concentration-inhibition curve. Read a high IC50 as lower potency. In the case of `CCCCC[C@@H]1O[C@@H]2CC[C@@H]1NC(=N)N2` [MONANCHORIC ACID], the IC50 was 11.3 µg/mL (≈ 53.5 µM).
Take `CC[C@@H]1C=CCC[C@]2(C[C@H]3CC[C@H]4[C@@H](C(=O)O)[C@@]5(CCC[C@H](C)O5)N=C(N2)N34)O1` [CRAMBESIDIN ACID]: the IC50 was 25 µg/mL (≈ 62 µM).
